Tests used:
GSPT1 = assay: Western blot, degradation of substrate protein in hPBMCs; assay type: cell-based, Human
IKZF2 = molecular target: T1, IKZF2 (Homo sapiens, UniProt Q96SW2+Q9UKS7); assay: as above; assay type: cell-based
T1 construct: effects of the compounds of the present disclosure on the expression of target proteins in cells; endogenous in cells; host or cells: human PBMCs (Milecell Biotechnologies)

CK1α = molecular target: T2, CK1α (Homo sapiens, UniProt P48729+Q96SW2); assay: as above; assay type: cell-based
T2 construct: effects of the compounds of the present disclosure on the expression of target proteins in cells; endogenous in cells; host or cells: human PBMCs (Milecell Biotechnologies)
T2 sequence (P48729 whole entry): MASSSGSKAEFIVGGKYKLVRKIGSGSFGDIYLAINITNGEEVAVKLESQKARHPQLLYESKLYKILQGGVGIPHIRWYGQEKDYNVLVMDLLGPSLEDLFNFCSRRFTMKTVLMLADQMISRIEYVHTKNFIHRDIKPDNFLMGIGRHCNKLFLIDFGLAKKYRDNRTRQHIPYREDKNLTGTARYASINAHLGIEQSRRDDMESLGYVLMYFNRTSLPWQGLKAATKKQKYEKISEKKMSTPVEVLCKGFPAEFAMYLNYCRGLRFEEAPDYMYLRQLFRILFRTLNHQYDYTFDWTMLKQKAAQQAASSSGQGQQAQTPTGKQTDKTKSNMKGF
T2 sequence (Q96SW2 whole entry): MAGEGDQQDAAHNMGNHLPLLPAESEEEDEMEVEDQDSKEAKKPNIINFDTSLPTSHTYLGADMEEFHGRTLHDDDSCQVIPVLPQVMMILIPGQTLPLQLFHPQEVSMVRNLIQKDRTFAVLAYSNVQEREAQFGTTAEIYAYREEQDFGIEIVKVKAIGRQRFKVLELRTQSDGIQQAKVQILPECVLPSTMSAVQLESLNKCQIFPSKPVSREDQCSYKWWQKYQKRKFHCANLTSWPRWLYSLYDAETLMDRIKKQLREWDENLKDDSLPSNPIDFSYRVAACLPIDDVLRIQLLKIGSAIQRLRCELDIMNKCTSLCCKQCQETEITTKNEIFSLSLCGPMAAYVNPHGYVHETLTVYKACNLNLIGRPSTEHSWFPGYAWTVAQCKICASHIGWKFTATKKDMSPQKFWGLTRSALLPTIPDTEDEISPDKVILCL
T2 sequence (Q16531 whole entry partner): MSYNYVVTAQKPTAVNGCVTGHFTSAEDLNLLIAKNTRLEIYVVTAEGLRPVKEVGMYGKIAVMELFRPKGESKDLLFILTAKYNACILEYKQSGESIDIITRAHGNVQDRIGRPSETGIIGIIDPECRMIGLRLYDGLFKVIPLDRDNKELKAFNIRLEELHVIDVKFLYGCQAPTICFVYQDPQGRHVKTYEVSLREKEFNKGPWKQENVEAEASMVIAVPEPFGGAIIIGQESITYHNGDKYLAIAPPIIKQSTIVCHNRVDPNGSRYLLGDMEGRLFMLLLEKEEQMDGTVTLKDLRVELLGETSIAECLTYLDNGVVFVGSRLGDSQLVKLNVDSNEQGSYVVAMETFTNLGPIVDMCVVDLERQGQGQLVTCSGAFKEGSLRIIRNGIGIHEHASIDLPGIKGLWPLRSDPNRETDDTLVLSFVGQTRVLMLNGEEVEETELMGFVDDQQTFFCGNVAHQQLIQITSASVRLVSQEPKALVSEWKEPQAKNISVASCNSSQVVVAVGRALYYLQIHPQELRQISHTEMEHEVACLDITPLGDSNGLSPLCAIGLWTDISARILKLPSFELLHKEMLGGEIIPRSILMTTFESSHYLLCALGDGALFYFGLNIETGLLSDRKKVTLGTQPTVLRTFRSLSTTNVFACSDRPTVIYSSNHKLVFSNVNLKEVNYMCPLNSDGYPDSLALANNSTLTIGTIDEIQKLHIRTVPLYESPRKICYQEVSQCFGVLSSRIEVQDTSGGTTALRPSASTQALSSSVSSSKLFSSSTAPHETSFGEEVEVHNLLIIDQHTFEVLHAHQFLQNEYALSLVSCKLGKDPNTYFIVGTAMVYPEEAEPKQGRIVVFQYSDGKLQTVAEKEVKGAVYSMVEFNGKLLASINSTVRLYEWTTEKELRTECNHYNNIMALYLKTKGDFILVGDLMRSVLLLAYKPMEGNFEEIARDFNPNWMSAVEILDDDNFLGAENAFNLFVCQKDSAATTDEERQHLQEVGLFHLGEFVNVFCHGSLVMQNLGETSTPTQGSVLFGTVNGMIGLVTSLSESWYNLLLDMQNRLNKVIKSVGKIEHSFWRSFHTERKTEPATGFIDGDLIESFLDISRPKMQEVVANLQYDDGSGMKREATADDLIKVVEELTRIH

WEE1 = molecular target: T3, WEE1 (Homo sapiens, UniProt P30291+Q96SW2); assay: as above; assay type: cell-based
T3 construct: effects of the compounds of the present disclosure on the expression of target proteins in cells; endogenous in cells; host or cells: human PBMCs (Milecell Biotechnologies)
T3 sequence (P30291 whole entry): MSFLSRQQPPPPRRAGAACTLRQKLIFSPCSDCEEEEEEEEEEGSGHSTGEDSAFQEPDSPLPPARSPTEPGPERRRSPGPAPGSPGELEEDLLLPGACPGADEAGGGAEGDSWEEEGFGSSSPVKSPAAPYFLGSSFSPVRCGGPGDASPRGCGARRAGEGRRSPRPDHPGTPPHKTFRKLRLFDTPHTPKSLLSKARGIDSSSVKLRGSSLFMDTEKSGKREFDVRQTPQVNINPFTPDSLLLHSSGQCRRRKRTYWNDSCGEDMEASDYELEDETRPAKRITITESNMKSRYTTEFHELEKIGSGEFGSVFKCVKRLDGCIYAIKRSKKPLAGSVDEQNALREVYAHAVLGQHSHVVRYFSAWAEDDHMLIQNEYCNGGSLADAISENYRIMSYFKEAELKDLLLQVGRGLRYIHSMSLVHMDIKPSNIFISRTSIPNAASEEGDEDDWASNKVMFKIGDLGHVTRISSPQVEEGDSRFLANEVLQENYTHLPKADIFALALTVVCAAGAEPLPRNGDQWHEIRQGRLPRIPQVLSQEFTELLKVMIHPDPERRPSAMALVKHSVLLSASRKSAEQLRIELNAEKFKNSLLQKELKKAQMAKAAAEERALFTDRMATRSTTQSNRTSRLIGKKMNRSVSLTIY
T3 sequence (Q96SW2 whole entry): as the sequence (Q96SW2 whole entry) above
T3 sequence (Q16531 whole entry partner): as the sequence (Q16531 whole entry partner) above

IKZF1 = molecular target: T4, IKZF1 (Homo sapiens, UniProt Q13422+Q96SW2); assay: as above; assay type: cell-based
T4 construct: effects of the compounds of the present disclosure on the expression of target proteins in cells; endogenous in cells; host or cells: human PBMCs (Milecell Biotechnologies)
T4 sequence (Q13422 whole entry): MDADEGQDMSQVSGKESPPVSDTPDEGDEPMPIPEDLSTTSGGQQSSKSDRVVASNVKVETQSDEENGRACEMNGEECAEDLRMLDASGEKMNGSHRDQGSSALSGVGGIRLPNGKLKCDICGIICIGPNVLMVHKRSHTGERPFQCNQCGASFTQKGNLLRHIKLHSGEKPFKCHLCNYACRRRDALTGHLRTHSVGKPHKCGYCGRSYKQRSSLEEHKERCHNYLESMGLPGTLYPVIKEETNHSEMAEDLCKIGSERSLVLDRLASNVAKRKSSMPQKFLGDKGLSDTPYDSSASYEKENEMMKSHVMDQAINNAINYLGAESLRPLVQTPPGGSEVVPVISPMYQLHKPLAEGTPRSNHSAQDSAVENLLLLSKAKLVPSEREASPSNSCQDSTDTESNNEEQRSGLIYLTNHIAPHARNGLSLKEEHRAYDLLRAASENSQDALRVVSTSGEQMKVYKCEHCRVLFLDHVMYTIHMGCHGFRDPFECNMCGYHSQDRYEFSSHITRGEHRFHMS
T4 sequence (Q96SW2 whole entry): as the sequence (Q96SW2 whole entry) above
T4 sequence (Q16531 whole entry partner): as the sequence (Q16531 whole entry partner) above

IKZF3 = molecular target: T5, IKZF3 (Homo sapiens, UniProt Q96SW2+Q9UKT9); assay: as above; assay type: cell-based
T5 construct: effects of the compounds of the present disclosure on the expression of target proteins in cells; endogenous in cells; host or cells: human PBMCs (Milecell Biotechnologies)
T5 sequence (Q9UKT9 whole entry): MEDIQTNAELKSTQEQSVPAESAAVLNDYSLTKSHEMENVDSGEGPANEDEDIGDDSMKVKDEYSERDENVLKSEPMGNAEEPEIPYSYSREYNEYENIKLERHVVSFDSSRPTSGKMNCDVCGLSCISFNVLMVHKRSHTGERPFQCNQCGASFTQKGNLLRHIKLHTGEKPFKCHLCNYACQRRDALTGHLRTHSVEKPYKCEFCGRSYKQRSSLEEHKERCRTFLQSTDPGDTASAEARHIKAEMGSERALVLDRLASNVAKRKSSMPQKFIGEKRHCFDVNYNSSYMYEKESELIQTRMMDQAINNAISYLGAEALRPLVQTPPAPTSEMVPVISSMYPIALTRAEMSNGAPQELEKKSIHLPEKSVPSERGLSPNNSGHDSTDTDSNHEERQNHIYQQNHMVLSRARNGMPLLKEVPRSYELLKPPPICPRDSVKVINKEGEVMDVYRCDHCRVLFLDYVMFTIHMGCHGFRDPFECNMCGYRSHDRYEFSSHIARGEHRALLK
T5 sequence (Q96SW2 whole entry): as the sequence (Q96SW2 whole entry) above
T5 sequence (Q16531 whole entry partner): as the sequence (Q16531 whole entry partner) above

[1] = molecular target: T6, human Cereblon WT GST-tagged protein (Homo sapiens, UniProt Q96SW2); assay: CRBN-binding affinity, HTRF (CEREBLON BINDING kit); settings: for inhibition at 0.5 µM: read-out: Inhibition Rate at 0.5 µM (%); for inhibition at 2 µM: read-out: Inhibition Rate at 2 µM (%)
T6 construct: purchased CISBIO 64BDCRBNPEH
T6 sequence (Q96SW2 whole entry): as the sequence (Q96SW2 whole entry) above

[2] = Western blot, 24 hours of compound treatment, compounds tested at 50 nM and 500 nM (concentration for the table not stated)
[3] = 24 hours treatment, compounds at 50 nM and 500 nM (concentration behind the class not stated)

T1 sequence (Q9UKS7 whole entry): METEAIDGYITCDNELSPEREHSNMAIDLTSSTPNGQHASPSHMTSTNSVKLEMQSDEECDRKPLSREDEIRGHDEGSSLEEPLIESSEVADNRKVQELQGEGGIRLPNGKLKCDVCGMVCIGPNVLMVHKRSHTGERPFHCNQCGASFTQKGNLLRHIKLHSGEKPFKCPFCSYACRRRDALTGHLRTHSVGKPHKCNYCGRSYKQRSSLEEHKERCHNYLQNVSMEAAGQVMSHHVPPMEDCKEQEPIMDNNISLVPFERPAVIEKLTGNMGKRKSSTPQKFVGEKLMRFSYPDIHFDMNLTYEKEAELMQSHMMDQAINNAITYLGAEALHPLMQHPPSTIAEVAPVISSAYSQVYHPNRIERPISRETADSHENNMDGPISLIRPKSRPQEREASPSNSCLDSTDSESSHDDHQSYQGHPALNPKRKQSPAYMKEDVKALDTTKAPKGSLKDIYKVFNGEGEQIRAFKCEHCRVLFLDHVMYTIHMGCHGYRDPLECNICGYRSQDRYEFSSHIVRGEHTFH
T1 sequence (Q96SW2 whole entry): as the sequence (Q96SW2 whole entry) above
T1 sequence (Q16531 whole entry partner): as the sequence (Q16531 whole entry partner) above

Row | SMILES | GSPT1 substrate protein remaining % (GSPT1; [2]) | IKZF2 substrate protein remaining % (IKZF2; [2]) | CK1α substrate protein remaining % (CK1α; [2]) | Wee1 substrate protein remaining % (WEE1; [2]) | IKZF 1 substrate protein remaining % (IKZF1; [2]) | IKZF3 substrate protein remaining % (IKZF3; [2]) | inhibition at 0.5 µM [1] [%] | inhibition at 2 µM [1] [%] | GSPT1 substrate protein remaining % (GSPT1; [3]) | IKZF2 substrate protein remaining % (IKZF2; [3]) | CK1α substrate protein remaining % (CK1α; [3]) | Wee1 substrate protein remaining % (WEE1; [3]) | IKZF 1 substrate protein remaining % (IKZF1; [3]) | IKZF3 substrate protein remaining % (IKZF3; [3])
1 | O=C1CCC(N2Cc3c(CN4CCN(c5noc6cc(F)ccc56)CC4)cccc3C2=S)C(=O)N1 (centres unmarked) [GT-08818, 3-(4-((4-(6-fluorobenzo[d]isoxazol-3-yl)piperazin-1-yl)methyl)-1-thioxoisoindolin-2-yl)piperidine-2,6-dione] | A (0% ≤ substrate protein remaining % ≤ 80%) | B (80%< substrate protein remaining %≤ 100%) | B (80%< substrate protein remaining %≤ 100%) | A (0% ≤ substrate protein remaining % ≤ 80%) | B (80%< substrate protein remaining %≤ 100%) | B (80%< substrate protein remaining %≤ 100%) | 53 to 60 | 60 to 80 | – | – | – | – | – | –
2 | Cc1cccc(N2CCN(Cc3cccc4c3CN(C3CCC(=O)NC3=O)C4=S)CC2)c1 (centres unmarked) [GT-08498, 3-(1-thioxo-4-((4-(m-tolyl)piperazin-1-yl)methyl)isoindolin-2-yl)piperidine-2,6-dione] | A (0% ≤ substrate protein remaining % ≤ 80%) | A (0% ≤ substrate protein remaining % ≤ 80%) | B (80%< substrate protein remaining %≤ 100%) | A (0% ≤ substrate protein remaining % ≤ 80%) | B (80%< substrate protein remaining %≤ 100%) | B (80%< substrate protein remaining %≤ 100%) | 40 to 53 | 60 to 80 | – | – | – | – | – | –
3 | Cc1csc2ncnc(C3=CCN(Cc4ccc5c(c4)CN(C4CCC(=O)NC4=O)C5=S)CC3)c12 (centres unmarked) [GT-09315, 3-(5-((4-(5-methylthieno[2,3-d]pyrimidin-4-yl)-3,6-dihydropyridin-1(2H)-yl)methyl)-1-thioxoisoindolin-2-yl)piperidine-2,6-dione] | – | – | – | – | – | – | 60 to 80 | 80 to 100 | A (0% ≤ substrate protein remaining % ≤ 80%) | B (80%< substrate protein remaining %≤ 100%) | B (80%< substrate protein remaining %≤ 100%) | B (80%< substrate protein remaining %≤ 100%) | A (0% ≤ substrate protein remaining % ≤ 80%) | A (0% ≤ substrate protein remaining % ≤ 80%)
4 | O=C1CCC(N2Cc3cc(CN4CCN(c5ncc(C(F)(F)F)cc5Cl)CC4)ccc3C2=S)C(=O)N1 (centres unmarked) [GT-09228, 3-(5-((4-(3-chloro-5-(trifluoromethyl)pyridin-2-yl)piperazin-1-yl)methyl)-1-thioxoisoindolin-2-yl)piperidine-2,6-dione] | B (80%< substrate protein remaining %≤ 100%) | B (80%< substrate protein remaining %≤ 100%) | A (0% ≤ substrate protein remaining % ≤ 80%) | B (80%< substrate protein remaining %≤ 100%) | B (80%< substrate protein remaining %≤ 100%) | B (80%< substrate protein remaining %≤ 100%) | 40 to 53 | 80 to 100 | – | – | – | – | – | –
5 | O=C1CCC(N2Cc3c(CN4CCC(c5cccc(Br)c5)CC4)cccc3C2=S)C(=O)N1 (centres unmarked) [GT-08507, 3-(4-((4-(3-bromophenyl)piperidin-1-yl)methyl)-1-thioxoisoindolin-2-yl)piperidine-2,6-dione] | B (80%< substrate protein remaining %≤ 100%) | B (80%< substrate protein remaining %≤ 100%) | B (80%< substrate protein remaining %≤ 100%) | A (0% ≤ substrate protein remaining % ≤ 80%) | B (80%< substrate protein remaining %≤ 100%) | A (0% ≤ substrate protein remaining % ≤ 80%) | 40 to 53 | 60 to 80 | – | – | – | – | – | –
6 | O=C1CCC(N2Cc3c(CN4CC=C(c5ccsc5)CC4)cccc3C2=S)C(=O)N1 (centres unmarked) [GT-08300, 3-(4-((4-(thiophen-3-yl)-3,6-dihydropyridin-1(2H)-yl)methyl)-1-thioxoisoindolin-2-yl)piperidine-2,6-dione] | B (80%< substrate protein remaining %≤ 100%) | A (0% ≤ substrate protein remaining % ≤ 80%) | B (80%< substrate protein remaining %≤ 100%) | B (80%< substrate protein remaining %≤ 100%) | B (80%< substrate protein remaining %≤ 100%) | B (80%< substrate protein remaining %≤ 100%) | 40 to 53 | 60 to 80 | – | – | – | – | – | –
7 | O=C1CCC(N2Cc3c(CN4CCC(c5ccnc(Cl)c5Cl)CC4)cccc3C2=S)C(=O)N1 (centres unmarked) [GT-08458, 3-(4-((4-(2,3-dichloropyridin-4-yl)piperidin-1-yl)methyl)-1-thioxoisoindolin-2-yl)piperidine-2,6-dione] | B (80%< substrate protein remaining %≤ 100%) | B (80%< substrate protein remaining %≤ 100%) | B (80%< substrate protein remaining %≤ 100%) | A (0% ≤ substrate protein remaining % ≤ 80%) | B (80%< substrate protein remaining %≤ 100%) | B (80%< substrate protein remaining %≤ 100%) | 53 to 60 | 80 to 100 | – | – | – | – | – | –
8 | O=C1CCC(N2Cc3cc(CN4CCC(c5ccoc5)CC4)ccc3C2=S)C(=O)N1 (centres unmarked) [GT-08326, 3-(5-((4-(furan-3-yl)piperidin-1-yl)methyl)-1-thioxoisoindolin-2-yl)piperidine-2,6-dione] | – | – | – | – | – | – | 40 to 53 | 80 to 100 | A (0% ≤ substrate protein remaining % ≤ 80%) | A (0% ≤ substrate protein remaining % ≤ 80%) | A (0% ≤ substrate protein remaining % ≤ 80%) | B (80%< substrate protein remaining %≤ 100%) | B (80%< substrate protein remaining %≤ 100%) | B (80%< substrate protein remaining %≤ 100%)
9 | O=C1CCC(N2Cc3c(CN4CCN(c5ncccn5)CC4)cccc3C2=S)C(=O)N1 (centres unmarked) [GT-08812, 3-(4-((4-(pyrimidin-2-yl)piperazin-1-yl)methyl)-1-thioxoisoindolin-2-yl)piperidine-2,6-dione] | B (80%< substrate protein remaining %≤ 100%) | B (80%< substrate protein remaining %≤ 100%) | B (80%< substrate protein remaining %≤ 100%) | A (0% ≤ substrate protein remaining % ≤ 80%) | B (80%< substrate protein remaining %≤ 100%) | B (80%< substrate protein remaining %≤ 100%) | 60 to 80 | 80 to 100 | – | – | – | – | – | –
10 | O=C1CCC(N2Cc3c(CN4C5CCC4CN(C(c4ccccc4)c4ccccc4)C5)cccc3C2=S)C(=O)N1 (centres unmarked) [GT-08235, 3-(4-((3-benzhydryl-3,8-diazabicyclo[3.2.1]octan-8-yl)methyl)-1-thioxoisoindolin-2-yl)piperidine-2,6-dione] | A (0% ≤ substrate protein remaining % ≤ 80%) | B (80%< substrate protein remaining %≤ 100%) | B (80%< substrate protein remaining %≤ 100%) | B (80%< substrate protein remaining %≤ 100%) | B (80%< substrate protein remaining %≤ 100%) | B (80%< substrate protein remaining %≤ 100%) | 40 to 53 | 80 to 100 | – | – | – | – | – | –

Reference: patent EP4745135A1 (Gluetacs Therapeutics (Shanghai) Co., Ltd., priority 2023, dated 2025)
